Holding throughout (type): in vivo
Experiment [1] relates to scented mayweed (Matricaria chamomila L; MATCH). Briefly: Postemergence herbicidal activity of mixtures on scented mayweed. The conditions noted are these: for MATCH Ob (observed control): alone. As for the experimental part:
(§1) Seeds of the desired test plant species were planted in Sun Gro MetroMix 306 planting mixture, which typically has a pH of 6.0 to 6.8 and an organic matter content of about 30 percent, in plastic pots with a surface area of 103.2 square centimeters (cm^2). When required to ensure good germination and healthy plants, a fungicide treatment and/or other chemical or physical treatment was applied. The plants were grown for 7-36 days (d) in a greenhouse with an approximate 14-hour (h) photoperiod which was maintained at about 18° C. during the day and 17° C. during the night. Nutrients and water were added on a regular basis and supplemental lighting was provided with overhead metal halide 1000-Watt lamps as necessary. The plants were employed for testing when they reached the second or third true leaf stage.
(§2) Treatments consisted of a cereal fungicide compound (as listed in Tables 1 through 34) and the cereal herbicide, 4-amino-3-chloro-6-(4-chloro-2-fluoro-3-methoxyphenyl)pyridine-2-carboxylic acid, alone and in combination. Weighed amounts of acid, esters (methyl) or salts (triethylammonium, TEA) of 4-amino-3-chloro-6-(4-chloro-2-fluoro-3-methoxyphenyl)pyridine-2-carboxylic acid (Compound I) were placed in 25 milliliter (mL) glass vials and dissolved in a volume of 97:3 volume-to-volume (v/v) acetone/dimethyl sulfoxide (DMSO) to obtain 4.5 milligrams active ingredient per milliliter (mg ai/mL) concentrated solutions. […] The concentrated solutions of Compound I were diluted to 1.5 mg ai/mL with the addition of 2 volumes of an aqueous mixture containing acetone, water, isopropyl alcohol, DMSO, Agri-dex crop oil concentrate, and Triton® X-77 surfactant in a 64.7:26.0:6.7:2.0:0.7:0.01 v/v ratio. A dilution solution was prepared by mixing 1 volume of 97:3 v/v acetone/DMSO and 2 volumes of an aqueous mixture containing acetone, water, isopropyl alcohol, DMSO, Agri-dex crop oil concentrate, and Triton® X-77 surfactant in a 64.7:26.0:6.7:2.0:0.7:0.01 v/v ratio. Compound requirements are based upon a 12 mL application volume at a rate of 187 liters per hectare (L/ha). The concentrated solutions of the cereal fungicides were prepared following the same procedure. Weighed amounts of fungicide were placed in 25 mL glass vials and dissolved in a volume of 97:3 v/v acetone/DMSO to obtain concentrated fungicide solutions. The concentrated solutions of the safener were prepared following the same procedure. Weighed amounts of safener were placed in 25 mL glass vials and dissolved in a volume of 97:3 v/v acetone/DMSO to obtain concentrated safener solutions.
(§3) Spray solutions of the cereal herbicide and the fungicidal compound mixtures were prepared by adding the concentrated solutions to the appropriate amount of dilution solution to form 12 mL spray solution with active ingredients in combinations. Spray solutions of the cereal herbicide, herbicide safener and the fungicidal compound mixtures were prepared by adding the concentrated solutions to the appropriate amount of dilution solution to form 12 mL spray solution with active ingredients in combinations.
(§4) Formulated compounds were applied to the plant material with an overhead Mandel track sprayer equipped with 8002E nozzles calibrated to deliver 187 L/ha over an application area of 0.503 square meters (m^2) at a spray height of 18 inches […] above average plant canopy. Control plants were sprayed in the same manner with the solvent blank.
(§5) The treated plants and control plants were placed in a greenhouse as described above and watered by sub-irrigation to prevent wash-off of the test compounds. After 20-22 d, the condition of the test plants as compared with that of the control plants was determined visually and scored on a scale of 0 to 100 percent where 0 corresponds to no injury and 100 corresponds to complete kill. […]

Experiment [2] deals with wild pansy (Viola tricolor L; VIOTR). In words: Postemergence herbicidal activity of mixtures on wild pansy. The method, then: as §1, §2, §3, §4, §5
Experiment [3] concerns bird's-eye speedwell (Veronica persica L; VERPE). In words: Postemergence herbicidal activity of mixtures on bird's-eye speedwell. The conditions noted are these: for VERPE Ob (observed control): alone. As for the experimental part:
as §1, §2, §3, §4, §5

Experiment [4] concerns Russian thistle (Salsola iberica L; SASKR). Briefly: Postemergence herbicidal activity of mixtures on Russian thistle. The settings on record: for SASKR Ob (observed control): alone. As for the experimental part: as §1, §2, §3, §4, §5
Experiment [5] relates to kochia (Kochia scoparia L; KCHSC). Briefly: Postemergence herbicidal activity of mixtures on kochia. Also noted: KCHSC Ob: unit: %. The settings on record: for KCHSC Ob (observed control): alone. As for the experimental part:
as §1, §2, §3, §4, §5

The mark [6] stands for this setting: Viola tricolor, post-emergence, alone, read-out: VIOTR Ob (observed control).

Structures can show the parent of a compound that is named as a salt. Where two headings read alike, the source gives them in different places.

Consider `COc1c(Cl)ccc(-c2cc(N)c(Cl)c(C(=O)O)n2)c1F` [Compound I TEA Salt, 4-amino-3-chloro-6-(4-chloro-2-fluoro-3-methoxyphenyl)pyridine-2-carboxylic acid], for which the “MATCH Ob” value in experiment [1] (Compound I 8.75 g/ha alone) is 40%. The pest or weed control at 17.5 g/ha amounted to 67% in experiment [1] (Matricaria, post-emergence, Compound I 17.5 g/ha alone, read-out: MATCH Ob); 40% in experiment [2] (Viola tricolor, post-emergence, alone, 17.5 g/ha, read-out: VIOTR Ob (observed control)); 84% in experiment [4] (Salsola tragus, post-emergence, Compound I 17.5 g/ha alone, read-out: SASKR Ob). For the same molecule, the pest or weed control at 35 g/ha in experiment [1] (Matricaria, post-emergence, Compound I 35 g/ha alone, read-out: MATCH Ob) is 73%; in experiment [2] (setting [6]), 47%; in experiment [4] (Salsola tragus, post-emergence, Compound I 35 g/ha alone, read-out: SASKR Ob) it was 86%. In addition, the figures for the “MATCH Ob (observed control)” value in experiment [1] (8.75 g/ha), in experiment [1] (17.5 g/ha) and in experiment [1] (35 g/ha) were 40%, 67% and 73%, respectively. Moreover, the “VIOTR Ob” value in experiment [2] (Compound I 8.75 g/ha alone) was 23%; in experiment [2] (Compound I 17.5 g/ha alone), 40%; in experiment [2] (Compound I 35 g/ha alone) it was 47%. In experiment [2] (alone, 8.75 g/ha), the “VIOTR Ob (observed control)” value came to 23%. Besides, the results for the “VERPE Ob” value in experiment [3] (Compound I 8.75 g/ha alone), in experiment [3] (Compound I 17.5 g/ha alone) and in experiment [3] (Compound I 35 g/ha alone) were 10%, 40% and 70%, respectively. The entries for the “VERPE Ob (observed control)” value in experiment [3] (8.75 g/ha), in experiment [3] (17.5 g/ha) and in experiment [3] (35 g/ha) were 10%, 40% and 70%, respectively. In addition, the pest or weed control at 8.75 g/ha in experiment [4] (Salsola tragus, post-emergence, Compound I 8.75 g/ha alone, read-out: SASKR Ob) is 80%. In addition, the “SASKR Ob (observed control)” value in experiment [4] (8.75 g/ha) turned out to be 80%; in experiment [4] (17.5 g/ha), 84%; in experiment [4] (35 g/ha), 86%. For the same molecule, the “KCHSC Ob” value in experiment [5] (Compound I 8.75 g/ha alone) amounted to 40%; in experiment [5] (Compound I 17.5 g/ha alone) it was 55%; in experiment [5] (Compound I 35 g/ha alone) it was 65%. Besides, the “KCHSC Ob (observed control)” value is on record as 40% in experiment [5] (8.75 g/ha), 55% in experiment [5] (17.5 g/ha) and 65% in experiment [5] (35 g/ha).
As to `CC(C1CC1)C(O)(Cn1cncn1)c1ccc(Cl)cc1` (stereo not drawn) [Cyproconazole, α-(4-chlorophenyl)-α-(1-cyclopropylethyl)-1H-1,2,4-triazole-1-ethanol], the pest or weed control at 19.8 g/ha came to 0% in experiment [1] (Matricaria, post-emergence, fungicide 19.8 g/ha alone, read-out: MATCH Ob); 0% in experiment [2] (Viola tricolor, post-emergence, fungicide 19.8 g/ha alone, read-out: VIOTR Ob); 0% in experiment [3] (Veronica persica, post-emergence, fungicide 19.8 g/ha alone, read-out: VERPE Ob); 0% in experiment [4] (Salsola tragus, post-emergence, fungicide 19.8 g/ha alone, read-out: SASKR Ob); 0% in experiment [5] (Bassia scoparia, post-emergence, fungicide 19.8 g/ha alone, read-out: KCHSC Ob).
Consider `CCCN(CCOc1c(Cl)cc(Cl)cc1Cl)C(=O)n1ccnc1` [Prochloraz, N-propyl-N-[2-(2,4,6-trichlorophenoxy)ethyl]-1H-imidazole-1-carboxamide], for which the pest or weed control at 101.25 g/ha in experiment [1] (Matricaria, post-emergence, read-out: MATCH Ob) amounted to 0%; in experiment [2] (Viola tricolor, post-emergence, read-out: VIOTR Ob), 0%; in experiment [3] (Veronica persica, post-emergence, read-out: VERPE Ob), 0%; in experiment [4] (Salsola tragus, post-emergence, read-out: SASKR Ob) it was 0%; in experiment [5] (Bassia scoparia, post-emergence, read-out: KCHSC Ob) it was 0%.
In the case of `CCCC1COC(Cn2cncn2)(c2ccc(Cl)cc2Cl)O1` (stereo not drawn) [Propiconazole, 1-[[2-(2,4-dichlorophenyl)-4-propyl-1,3-dioxolan-2-yl]methyl]-1H-1,2,4-triazole], the pest or weed control at 31.25 g/ha was found to be 0% in experiment [1] (Matricaria, post-emergence, fungicide 31.25 g/ha alone, read-out: MATCH Ob); 0% in experiment [2] (Viola tricolor, post-emergence, fungicide 31.25 g/ha alone, read-out: VIOTR Ob); 0% in experiment [3] (Veronica persica, post-emergence, fungicide 31.25 g/ha alone, read-out: VERPE Ob); 0% in experiment [4] (Salsola tragus, post-emergence, fungicide 31.25 g/ha alone, read-out: SASKR Ob); 0% in experiment [5] (Bassia scoparia, post-emergence, fungicide 31.25 g/ha alone, read-out: KCHSC Ob).
Consider `Fc1ccc(Oc2ccnc3cc(Cl)cc(Cl)c23)cc1` [Quinoxyfen, 5,7-dichloro-4-(4-fluorophenoxy)quinoline], for which the “MATCH Ob (observed control)” value in experiment [1] (37.5 g/ha) was 0%. The pest or weed control at 37.5 g/ha is 0% in experiment [2] (Viola tricolor, post-emergence, alone, 37.5 g/ha, read-out: VIOTR Ob (observed control)); 0% in experiment [2] (Viola tricolor, post-emergence, fungicide 37.5 g/ha alone, read-out: VIOTR Ob); 0% in experiment [5] (Bassia scoparia, post-emergence, fungicide 37.5 g/ha alone, read-out: KCHSC Ob). Besides, the “VERPE Ob (observed control)” value in experiment [3] (37.5 g/ha) is 0%. The “SASKR Ob (observed control)” value in experiment [4] (37.5 g/ha) turned out to be 0%. Besides, in experiment [5] (37.5 g/ha), the “KCHSC Ob (observed control)” value is 0%.
In the case of `CO/N=C(/C(=O)OC)c1ccccc1CO/N=C(\C)c1cccc(C(F)(F)F)c1` [Trifloxystrobin, methyl (αE)-α-(methoxyimino)-2-[[[[(1E)-1-[3-(trifluoromethyl)phenyl]ethylidene]amino]oxy]methyl]benzeneacetate], in experiment [1] (62.5 g/ha), the “MATCH Ob (observed control)” value is 0%. Also, the pest or weed control at 62.5 g/ha in experiment [2] (Viola tricolor, post-emergence, alone, 62.5 g/ha, read-out: VIOTR Ob (observed control)) was found to be 0%. Further, the “VERPE Ob (observed control)” value in experiment [3] (62.5 g/ha) is on record as 0%. Further, in experiment [4] (62.5 g/ha), the “SASKR Ob (observed control)” value is 0%. For the same molecule, the “KCHSC Ob (observed control)” value in experiment [5] (62.5 g/ha) turned out to be 0%.
As for `CCCCCC(C)OC(=O)COc1ccc(Cl)c2cccnc12` (stereo not drawn) [cloquintocet-mexyl], the “MATCH Ob (observed control)” value in experiment [1] (4.4 g/ha) and in experiment [1] (35 g/ha) was 0% throughout. Besides, the pest or weed control at 4.4 g/ha in experiment [2] (Viola tricolor, post-emergence, alone, 4.4 g/ha, read-out: VIOTR Ob (observed control)) came to 0%. In experiment [2] (setting [6]), the pest or weed control at 35 g/ha turned out to be 0%. Further, the “VERPE Ob (observed control)” value in experiment [3] (4.4 g/ha) and in experiment [3] (35 g/ha) was 0% each time. Besides, the “SASKR Ob (observed control)” value in experiment [4] (4.4 g/ha) and in experiment [4] (35 g/ha) was 0% throughout. The “KCHSC Ob (observed control)” value in experiment [5] (4.4 g/ha) and in experiment [5] (35 g/ha) was 0% throughout.
Take “[[2-[(dithiocarboxy)amino]ethyl]carbamo-dithioato(2^−)-κS,κS′]manganese mixture with [[2-[(dithiocarboxy)amino]ethyl]carbamo-dithioato(2^−)-κS,κS′]zinc [Mancozeb]”: in experiment [1] (fungicide 281.25 g/ha alone), the “MATCH Ob” value is on record as 0%. Also, the “VIOTR Ob” value in experiment [2] (fungicide 281.25 g/ha alone) is 0%. Further, the “VERPE Ob” value in experiment [3] (fungicide 281.25 g/ha alone) turned out to be 0%. Also, the “SASKR Ob” value in experiment [4] (fungicide 281.25 g/ha alone) came out at 0%. Also, in experiment [5] (fungicide 281.25 g/ha alone), the “KCHSC Ob” value worked out at 0%.
